Assay results: patent US20230278972A1, “SUBSTITUTED HALOALKYL SULFONANILIDE HERBICIDES” (FMC Corporation, priority 2020, published 2023)

What was measured:
Assay type in all cases: in vivo
[1] = system: ragweed (common ragweed, Ambrosia artemisiifolia); test: Test A1 postemergence, ragweed; settings: Postemergence
Outline: (§1)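 Postemergence species (ragweed, Palmer pigweed, wild oat) were sprayed at one- to two-leaf stage, 2 to 10 cm tall. Corn was treated preemergence by directed soil spray. Both used a loam soil/sand blend and compounds in a non-phytotoxic solvent mixture with surfactant.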

[2] = system: ragweed (common ragweed, Ambrosia artemisiifolia); test: Test A1 preemergence, ragweed
Outline: (§2)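 Pre: seeds in loam/sand blend, directed soil spray. Post: potted plants, same soil, 2–10 cm, 1–2 leaf stage. Chemicals in non-phytotoxic solvent + surfactant for both.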

[3] = system: blackgrass (Alopecurus myosuroides); test: Test A1 preemergence, blackgrass
Outline: as §2

[4] = system: goosegrass (Eleusine indica); test: Test A1 preemergence, goosegrass
Outline: as §2

[5] = system: Pigweed, Palmer (palmer amaranth, palmer pigweed, Amaranthus palmeri); test: Test A1 postemergence, Pigweed, Palmer; settings: Postemergence
Outline: as §1

[6] = system: Oat, Wild (wild oat, Avena fatua); test: Test A1 postemergence, Oat, Wild; settings: Postemergence
Outline: as §1

[7] = system: wheat (Triticum aestivum); test: Test A1 preemergence, wheat
Outline: as §2

[8] = system: corn (Zea mays); test: Test A1 preemergence, corn
Outline: as §1

[9] = system: goosegrass (Eleusine indica); test: Test A1 postemergence, goosegrass; settings: Postemergence
Outline: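 Plants were grown in a loam soil/sand blend, with test chemicals formulated in a non-phytotoxic solvent mixture containing surfactant. Preemergence treatment (corn) was a directed soil spray at planting. Postemergence treatment was applied to plants 2 to 10 cm tall at the one- to two-leaf stage.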

[10] = 31 g ai/ha, 0 to 100 scale (0 no effect, 100 complete control), 10 days
[11] = 31 g ai/ha, 0 to 100 scale (0 no effect, 100 complete control)
[12] = 125 g ai/ha, 0 to 100 scale, 0 no effect, 100 complete control

Row | Compound | Plant response rating, Ragweed [1, 10] | Plant response rating, Ragweed ([1]; 125 g ai/ha, 0 to 100 scale) | Plant response rating, Ragweed [2, 11] | Plant response rating, Ragweed [2, 12] | Plant response rating, Blackgrass [3, 11] | Plant response rating, Blackgrass [3, 12] | Plant response rating, Goosegrass [4, 11] | Plant response rating, Goosegrass [4, 12] | Plant response rating, Pigweed, Palmer [5, 10] | Plant response rating, Pigweed, Palmer ([5]; 125 g ai/ha, 0 to 100 scale) | Plant response rating, Oat, Wild [6, 10] | Plant response rating, Oat, Wild ([6]; 125 g ai/ha, 0 to 100 scale) | Plant response rating, Wheat [7, 11] | Plant response rating, Wheat [7, 12] | Plant response rating, Corn [8, 11] | Plant response rating, Corn [8, 12] | Plant response rating, Goosegrass [9, 10] | Plant response rating, Goosegrass ([9]; 125 g ai/ha, 0 to 100 scale)
1 | CCc1cc(C)c(NS(=O)(=O)C(F)(F)F)cc1C1=NOC2CCCC12 (stereo not drawn) [Compound 305] | 0 | 60 | 0 | 20 | 10 | 40 | 90 | 90 | 0 | 40 | 20 | 20 | 20 | 40 | 10 | 90 | 10 | 80
2 | CCc1cc(C)c(C2=NOC3(CCCC3)C2)cc1NS(=O)(=O)C(F)(F)F [Compound 311] | 0 | 0 | 0 | 0 | 20 | 40 | 10 | 60 | 0 | 0 | 0 | 0 | 0 | 0 | 0 | 0 | 0 | 0
3 | Cc1c(C(=O)N2CCOCC2)cc(N(COC(=O)C(C)(C)C)S(=O)(=O)C(F)(F)F)c(C)c1C [Compound 324, [[(Trifluoromethyl)sulfonyl][2,3,4-trimethyl-5-(4-morpholinylcarbonyl)phenyl]amino]methyl 2,2-dimethylpropanoate] | 70 | 70 | 20 | 80 | 20 | 30 | 80 | 100 | 30 | 70 | 0 | 0 | 0 | 70 | 20 | 40 | 30 | 80
4 | Cc1c(NS(=O)(=O)C(F)(F)F)cc(C(=O)N2CCCCC2)c(C)c1C [Compound 326] | 60 | 80 | 90 | 90 | 0 | 0 | 90 | 90 | 40 | 80 | 0 | 0 | 0 | 50 | 0 | 90 | 0 | 80
5 | Cc1c(NS(=O)(=O)C(F)(F)F)cc(C(=O)N2CC(C)OC(C)C2)c(C)c1C (stereo not drawn) [Compound 327] | 70 | 90 | 90 | 90 | 0 | 30 | 50 | 90 | 30 | 50 | 0 | 0 | 0 | 30 | 0 | 60 | 20 | 70
6 | Cc1c(NS(=O)(=O)C(F)(F)F)cc(C(=O)N2CC(C)OC(C)C2)c(C)c1C (stereo not drawn) [Compound 328] | 40 | 70 | 10 | 80 | 20 | 30 | 40 | 80 | 30 | 40 | 0 | 0 | 0 | 30 | 10 | 60 | 20 | 80
7 | C#CCN(C)C(=O)c1cc(NS(=O)(=O)C(F)(F)F)c(Cl)c(F)c1C [Compound 337] | 50 | 90 | 70 | 90 | 40 | 60 | 50 | 100 | 30 | 50 | 0 | 20 | 10 | 60 | 0 | 70 | 0 | 90
8 | COCC1CC(c2cc(N(COC(=O)C(C)(C)C)S(=O)(=O)C(F)(F)F)c(C)cc2C)=NO1 (stereo not drawn) [Compound 338] | 30 | 70 | 0 | 40 | 0 | 0 | 40 | 100 | 0 | 30 | 0 | 10 | 0 | 80 | 10 | 50 | 0 | 70
9 | Cc1cc(C)c(C2=NOC3(C)CCCC23)cc1NS(=O)(=O)C(F)(F)F (stereo not drawn) [Compound 340] | 70 | 80 | 10 | 90 | 60 | 90 | 100 | 100 | 0 | 30 | 0 | 20 | 20 | 90 | 0 | 90 | 60 | 90
10 | Cc1cc(C)c(N(COC(=O)C(C)(C)C)S(=O)(=O)C(F)(F)F)cc1C1=NOC2(C)CCCC12 (stereo not drawn) [Compound 341] | 60 | 80 | 0 | 0 | 0 | 30 | 30 | 100 | 0 | 20 | 0 | 20 | 0 | 0 | 0 | 0 | 0 | 60
